Key:
Assay type in all cases: biochemical
[1] = biological target: T1, MMP 9 (Homo sapiens, UniProt P14780); test: In Vitro Gelatinase Assay; details: human neutrophil gelatinase B; for IC50: read-out: MMP 9 IC 50; for inhibition at 1 µM: read-out: MMP 9 % inhibition at 1 micromolar
T1 construct: from tissue; host or cells: human neutrophils
Experimental: The assay is based on the cleavage of the thiopeptide substrate ((Ac-Pro-Leu-Gly(2 mercapto-4 methyl-pentanoyl)-Leu-Gly-OEt), Bachem Bioscience) by the enzyme, gelatinase, releasing the substrate product which reacts colorimetrically with DTNB ((5,5'-dithio-bis(2-nitro-benzoic acid)). The enzyme activity is measured by the rate of the color increase. The thiopeptide substrate is made up fresh as a 20 mM stock in 100% DMSO and the DTNB is dissolved in 100% DMSO as a 100 mM stock and stored in dark at room temperature. Both the substrate and DTNB are diluted together to 1 mM with substrate buffer (50 mM HEPES pH 7.5, 5 mM CaCl2) before use. […] The increase in OD405 is plotted and the slope of the line is calculated which represents the reaction rate. The linearity of the reaction rate is confirmed (r^2 >0.85). The mean (x ± sem) of the control rate is calculated and compared for statistical significance (p <0.05) with drug-treated rates using Dunnett's multiple comparison test.

[2] = biological target: MMP 13 (Homo sapiens, UniProt P45452); test: MMP 13 inhibition (IC50 / manual assay; method not described); details: for IC50: read-out: MMP 13 IC 50; for inhibition at 1 µM: read-out: MMP 13 % inhibition at 1 micromolar
[3] = biological target: T2, MMP 1 (Homo sapiens, UniProt P03956); test: In Vitro Collagenase Assay; details: human recombinant fibroblast collagenase; for IC50: read-out: MMP 1 IC 50; for inhibition at 1 µM: read-out: MMP 1 % inhibition at 1 micromolar
T2 construct: human recombinant fibroblast collagenase (truncated, mw= 18,828, WAR, Radnor)
T2 sequence (P03956 100-269 limits assumed): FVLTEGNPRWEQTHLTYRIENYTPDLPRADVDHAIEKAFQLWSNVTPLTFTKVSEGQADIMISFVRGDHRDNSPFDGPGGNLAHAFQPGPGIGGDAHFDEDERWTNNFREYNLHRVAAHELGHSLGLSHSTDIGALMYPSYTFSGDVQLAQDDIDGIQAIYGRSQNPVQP
Experimental: The assay is based on the cleavage of a peptide substrate ((Dnp-Pro-Cha-Gly-Cys(Me)-His-Ala-Lys(NMa)-NH2), Peptide International, Inc.) by collagenase releasing the fluorescent NMa group which is quantitated on the fluorometer. Dnp quenches the NMa fluorescence in the intact substrate. […] Substrate is dissolved in methanol and stored frozen in 1 mM aliquots. […] For the assay, substrate is dissolved in HCBC buffer to a final concentration of 10 µM and collagenase to a final concentration of 5 nM. Compounds are dissolved in methanol, DMSO, or HCBC. The methanol and DMSO are diluted in HCBC to < 1.0%. Compounds are added to the 96 well plate containing enzyme and the reaction is started by the addition of substrate.
The slope of the line is calculated and represents the reaction rate.
The linearity of the reaction rate is confirmed (r^2 >0.85). The mean (x ± sem) of the control rate is calculated and compared for statistical significance (p <0.05) with drug-treated rates using Dunnett's multiple comparison test.

[4] = biological target: T3, TACE (Homo sapiens, UniProt P78536); test: Procedure for Measuring TACE Inhibition; details: for IC50: read-out: TACE IC 50; for inhibition at 1 µM: read-out: TACE % inhibition at 1 micromolar
T3 construct: purchased Immunex
T3 sequence (P78536 215-824): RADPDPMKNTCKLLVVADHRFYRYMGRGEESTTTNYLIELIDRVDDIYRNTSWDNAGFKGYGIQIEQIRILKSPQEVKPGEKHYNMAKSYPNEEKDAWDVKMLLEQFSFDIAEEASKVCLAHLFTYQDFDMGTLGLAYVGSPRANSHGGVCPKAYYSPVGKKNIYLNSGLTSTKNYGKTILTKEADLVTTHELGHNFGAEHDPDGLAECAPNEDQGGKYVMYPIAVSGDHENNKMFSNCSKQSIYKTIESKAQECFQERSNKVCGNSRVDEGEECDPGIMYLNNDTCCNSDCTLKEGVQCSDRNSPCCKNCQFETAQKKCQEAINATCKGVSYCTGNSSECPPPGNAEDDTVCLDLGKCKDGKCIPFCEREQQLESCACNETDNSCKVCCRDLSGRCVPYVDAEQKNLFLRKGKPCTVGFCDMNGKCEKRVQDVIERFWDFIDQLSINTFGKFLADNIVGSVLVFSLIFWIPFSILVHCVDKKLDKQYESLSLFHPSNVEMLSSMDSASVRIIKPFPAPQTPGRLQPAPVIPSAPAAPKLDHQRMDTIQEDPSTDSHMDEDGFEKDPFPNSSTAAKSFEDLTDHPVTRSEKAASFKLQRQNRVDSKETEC
Outline: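 Single-concentration screen: test compound at 1 µM final, 10-min room-temperature preincubation with 1 µg/mL protease in Tris pH 7.4 buffer containing glycerol. Initial rate from linear fluorescence increase (340/420 nm) over 10 min after adding 100 µM peptidyl substrate; significance versus control rate by Dunnett's test.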

T1 sequence (P14780 94-707): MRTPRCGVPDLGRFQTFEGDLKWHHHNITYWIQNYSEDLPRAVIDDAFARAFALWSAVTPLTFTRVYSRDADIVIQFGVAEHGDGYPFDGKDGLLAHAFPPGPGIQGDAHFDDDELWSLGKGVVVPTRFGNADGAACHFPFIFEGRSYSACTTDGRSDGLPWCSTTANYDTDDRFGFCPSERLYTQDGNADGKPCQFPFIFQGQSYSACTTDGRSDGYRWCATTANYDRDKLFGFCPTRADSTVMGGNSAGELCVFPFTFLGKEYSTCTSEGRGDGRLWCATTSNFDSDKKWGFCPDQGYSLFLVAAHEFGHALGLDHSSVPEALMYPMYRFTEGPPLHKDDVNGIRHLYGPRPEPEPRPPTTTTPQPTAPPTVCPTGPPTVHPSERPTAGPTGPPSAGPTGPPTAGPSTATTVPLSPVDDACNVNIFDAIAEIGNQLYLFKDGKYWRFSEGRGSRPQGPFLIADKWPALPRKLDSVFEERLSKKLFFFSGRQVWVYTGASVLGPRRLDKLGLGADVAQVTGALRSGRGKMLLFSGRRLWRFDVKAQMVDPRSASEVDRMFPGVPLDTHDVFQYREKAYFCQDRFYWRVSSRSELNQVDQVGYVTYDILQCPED

## CCCCC[C@@H](C(=O)NO)[S@@+]([O-])c1ccc(OC)cc1 (stereo in doubt) [Example 81b, 2S*-(4-methoxy-phenyl-R*- sulfinyl)-heptanoic acid hydroxyamide]
[1]
  IC50: 154 nM
[2]
  IC50: 15.7 nM
[3]
  IC50: 3760 nM
[4]
  IC50: 228 nM

## COc1ccc(SC(C(=O)NO)C(C)C)cc1 (centres unmarked) [Example 4, N-Hydroxy-2-(4-methoxy-phenylsulfanyl)-3-methyl-butyramide]
[1]; 1 micromolar
  inhibition at 1 µM: 22.2%
[2]
  inhibition at 1 µM: 17.1%
[3]
  IC50: 371 nM
[4]
  inhibition at 1 µM: 21%

## COc1ccc([S+]([O-])C(C)(CC=C(C)C)C(=O)NO)cc1 (centres unmarked) [Example 6, 2-(4-Methoxy-benzenesulfinyl)-2,5-dimethyl-hex-4-enoic acid hydroxyamide]
[1]
  IC50: 21.4 nM
[2]
  IC50: 15.6 nM
[3]
  IC50: 267 nM
[4]
  inhibition at 1 µM: 40.4%

## COc1ccc([S+]([O-])C(C(=O)NO)C(C)C)cc1 (centres unmarked) [Example 7, N-Hydroxy-2-(4-methoxy-benzenesulfinyl)-3-methyl-butyramide]
[1]
  IC50: 72.9 nM
[2]
  IC50: 42.1 nM
[3]
  IC50: 844 nM
[4]
  inhibition at 1 µM: 33%

## COc1ccc(S(=O)(=O)C(C)(CC=C(C)C)C(=O)NO)cc1 (centres unmarked) [Example 13, 2-(4-Methoxy-benzenesulfonyl)-2,5-dimethyl-hex-4-enoic acid hydroxyamide]
[1]
  IC50: 11 nM
[2]
  IC50: 14 nM
[3]
  IC50: 239 nM
[4]
  IC50: 626 nM

## COc1ccc(S(=O)(=O)C(C)(CC=C(C)CCC=C(C)C)C(=O)NO)cc1 (centres unmarked) [Example 15, 2-(4-methoxy-benzenesulfonyl)-2,5,9-trimethyl-deca-4,8-dienoic acid hydroxyamide]
[1]
  IC50: 17 nM
[2]
  IC50: 4 nM
[3]
  IC50: 285 nM
[4]
  IC50: 137 nM

## COc1ccc(S(=O)(=O)C(C)(CC2CCCCC2)C(=O)NO)cc1 (centres unmarked) [Example 16, 3-Cyclohexyl-N-hydroxy-2-(4-methoxy-benzenesulfonyl)-2-methyl-propionamide]
[1]
  IC50: 9 nM
[2]
  IC50: 24 nM
[3]
  IC50: 325 nM
[4]
  IC50: 180 nM

## CCCC(Cc1ccc(OCCN2CCCCCC2)cc1)(C(=O)NO)S(=O)(=O)c1ccc(OC)cc1 (centres unmarked) [Example 19, 2-[4-(2-Azepan-1-yl-ethoxy)-benzyl]-2-(4-methoxy-benzenesulfonyl)-pentanoic acid hydroxyamide]
[1]
  IC50: 95.8 nM
[2]
  IC50: 4.8 nM
[3]
  IC50: 446 nM
[4]
  inhibition at 1 µM: 33.1%

## COc1ccc(S(=O)(=O)C(C)(Cc2cccc(OCCN3CCCCC3)c2)C(=O)NO)cc1 (centres unmarked) [Example 22, N-Hydroxy-2-(4-methoxy-benzenesulfonyl)-2-methyl-3-[3-(2-piperidin-1-yl-ethoxy)-phenyl]-propionamide]
[1]
  IC50: 3.2 nM
[2]
  IC50: 2.5 nM
[3]
  IC50: 219 nM
[4]
  inhibition at 1 µM: 30%

## COc1ccc(S(=O)(=O)C(C)(Cc2ccc(OCCCN3CCN(c4cccc(Cl)c4)CC3)cc2)C(=O)NO)cc1 (centres unmarked) [Example 23, 3-(4-{3-[4-(3-Chloro-phenyl)-piperazin-1-yl]-propoxy}-phenyl)-N-hydroxy-2-(4-methoxy-benzenesulfonyl)-2-methyl-propionamide]
[1]
  IC50: 7.9 nM
[2]
  IC50: 4 nM
[3]
  IC50: 593 nM
[4]
  inhibition at 1 µM: 40.6%

## CCN(CC)CCOc1cccc(CC(C)(C(=O)NO)S(=O)(=O)c2ccc(OC)cc2)c1 (centres unmarked) [Example 29, N-Hydroxy-2-(4-methoxy-benzenesulfonyl)-2-methyl-3-[3-(2-N,N-diethylamino-ethoxy)-phenyl]-propionamide]
[1]
  IC50: 4.3 nM
[2]
  IC50: 3.6 nM
[3]
  IC50: 297 nM
[4]
  TACE % inhibition at 1 micromolar: 41%

## COc1ccc(S(=O)(=O)C(C)(Cc2cccc(OCCN3CCOCC3)c2)C(=O)NO)cc1 (centres unmarked) [Example 30, N-Hydroxy-2-(4-methoxy-benzenesulfonyl)-2-methyl-3-[3-(2-morpholin-1-yl-ethoxy)-phenyl]-propionamide]
[1]
  IC50: 8.1 nM
[2]
  IC50: 5.7 nM
[3]
  IC50: 397 nM
[4]
  inhibition at 1 µM: 25.2%

## COc1ccc(S(=O)(=O)C(C)(CCCCN2C(=O)c3ccccc3C2=O)C(=O)NO)cc1 (centres unmarked) [Example 31, 6-(1,3-Dioxo-1,3-dihydro-isoindol-2-yl)-2-(4-methoxy-benzenesulfonyl)-2-methyl - hexanoic acid hydroxyamide]
[1]
  IC50: 15.2 nM
[2]
  IC50: 5.7 nM
[3]
  IC50: 162 nM
[4]
  IC50: 688 nM

## CCC(Cc1ccc(OCCN2CCOCC2)cc1)(C(=O)NO)S(=O)(=O)c1ccc(OC)cc1 (centres unmarked) [Example 33, N-Hydroxy-2-(4-methoxy-benzenesulfonyl)-2-[4-(2-morpholin-4-yl-ethoxy)-benzyl]-butyramide]
[1]
  IC50: 53.9 nM
[2]
  IC50: 18.4 nM
[3]
  IC50: 318 nM
[4]
  inhibition at 1 µM: 23.9%

## CCC(Cc1ccc(OCCN2CCCCC2)cc1)(C(=O)NO)S(=O)(=O)c1ccc(OC)cc1 (centres unmarked) [Example 34, N-Hydroxy-2-(4-methoxy-benzenesulfonyl)-2-[4-(2-piperidin-1-yl-ethoxy)-benzyl]-butyramide]
[1]
  IC50: 34.7 nM
[2]
  IC50: 26.1 nM
[3]
  IC50: 520 nM
[4]
  inhibition at 1 µM: 28.1%

## CCCCCCC(Cc1ccc(OCCN2CCCCCC2)cc1)(C(=O)NO)S(=O)(=O)c1ccc(OC)cc1 (centres unmarked) [Example 36, 2-[4-(2-Azepan-1-yl-ethoxy)-benzyl]-2-(4-Methoxy-benzenesulfonyl)-octanoic acid hydroxyamide]
[1]
  IC50: 83.8 nM
[2]
  IC50: 20.7 nM
[3]
  IC50: 622 nM
[4]
  IC50: 826 nM

## CCCCCCC(Sc1ccc(F)cc1)C(=O)NO (centres unmarked) [Example 38, 2-(4-Fluoro-phenylsulfanyl)-octanoic acid hydroxyamide]
[1]; 1 micromolar
  inhibition at 1 µM: 1.7%
[2]
  inhibition at 1 µM: 5.8%
[3]; 1 micromolar
  inhibition at 1 µM: 48.3%
[4]
  inhibition at 1 µM: 55.1%

## Cc1occc1S(=O)(=O)C(C)(Cc1ccccc1)C(=O)NO (centres unmarked) [Example 43, 2-Methyl-2-(2-methyl-furan-3-sulfonyl)-3-phenyl-propionic acid hydroxamide]
[1]; 1 micromolar
  inhibition at 1 µM: 34.7%
[2]
  inhibition at 1 µM: 55.5%
[3]; 1 micromolar
  inhibition at 1 µM: 66.1%
[4]
  inhibition at 1 µM: 46.6%

## Cc1occc1S(=O)(=O)C(C)(Cc1ccc(OCCN2CCCCC2)cc1)C(=O)NO (centres unmarked) [Example 44, 2-Methyl-2-(2-methyl-furan-3-sulfonyl)-3-[4-(2-piperidin-1-yl-ethoxy)-phenyl]-propionic acid hydroxamide]
[1]; 1 micromolar
  inhibition at 1 µM: 36.9%
[2]
  inhibition at 1 µM: 39.5%
[3]; 1 micromolar
  inhibition at 1 µM: 47.1%
[4]
  inhibition at 1 µM: 14.9%

## CCCCCCCCS(=O)(=O)C(Cc1ccc(OCCN2CCCCC2)cc1)C(=O)NO (centres unmarked) [Example 46, 2-(octane-1-sulfonyl)-3-[4-(2-piperidin-yl-ethoxy)-phenyl]propionic acid hydroxamide]
[1]; 1 micromolar
  MMP 9 % inhibition at 1 micromolar: 79.12%
[2]; 1 micromolar
  MMP 13 % inhibition at 1 micromolar: 84.7%
[3]; 1 micromolar
  MMP 1 % inhibition at 1 micromolar: 78.9%
[4]
  TACE % inhibition at 1 micromolar: 1.4%

## CC(C(=O)O)S(=O)(=O)CCCCCCCCS(=O)(=O)C(C)C(=O)NO (centres unmarked) [Example 49, 2-[8-(1-carboxy-ethanesulfonyl)-octane-1-sulfonyl]-propionic acid hydroxyamide]
[1]; 1 micromolar
  inhibition at 1 µM: 23.7%
[2]
  inhibition at 1 µM: 54.6%
[3]; 1 micromolar
  inhibition at 1 µM: 10.1%

## COc1ccc(S(=O)(=O)C2(C(=O)NO)CCN(C(C)(C)C)CC2)cc1 [Example 92, 1-Tert-butyl-4-(4-methoxy-benzenesulfonyl)-piperidine-4-carboxylic acid hydroxyamide]
[1]
  IC50: 649 nM
[2]
  IC50: 148 nM
[3]; 1 micromolar
  inhibition at 1 µM: 59.6%

## COc1ccc(S(=O)(=O)C2(C(=O)NO)CCN(C(C)C)CC2)cc1 [Example 96, 1-Isopropyl-4-(4-methoxy-benzenesulfonyl)-piperidine-4-carboxylic acid hydroxyamide]
[1]
  IC50: 374 nM
[2]
  IC50: 33.8 nM
[3]
  IC50: 4440 nM

Reference: patent EP0970046B1, “N-HYDROXY-2-(ALKYL, ARYL, OR HETEROARYL SULFANYL, SULFINYL OR SULFONYL)-3-SUBSTITUTED ALKYL, ARYL OR HETEROARYLAMIDES AS MATRIX METALLOPROTEINASE INHIBITORS” (Wyeth Holdings Corporation, priority 1997, dated 1998)
